According to US4673670A, “N^6 -acenaphthyl adenosines and analogs thereof” (Warner-Lambert Company, priority 1986, dated 1987):

System: conscious rat
Experiment: Antihypertensive evaluation (AHP3): aortic blood pressure and heart rate from conscious rats
Assay type: in vivo
Conditions: hour 1
Description: This test procedure is described in the following paragraphs.
A Method for the Direct Monitoring of Aortic Blood Pressure and Heart Rate from Conscious Rats
The continuous monitoring of pulsatile blood pressure (BP) from unrestrained conscious rats surgically equipped with polyethylene cannulas was accomplished by means of a computer assisted data capture scheme (CADCS). The basic elements of the methodology are the cannulation procedure and the CADCS.
Cannulation Procedure: Rats were anesthetized with Telazol (1:1 tiletamine HCl and zolazepam HCl); 20-40 mg/kg IM and the descending aorta exposed via a midline incision. Cannulas fabricated from polyethylene tubing were inserted into the aorta via an undersized puncture hole below the renal arteries. The puncture hole was made by a 23 G disposable needle with a section of the aorta clamped off above and below the puncture site. The cannulas, consisting of a PE100 (0.86 mm ID) body and a PE50 (0.58 mm ID) tip, were attached to a trocar, inserted through the psoas muscle, and passed subcutaneously along the midline of the back and externalized between the ears. […]
CADCS: The pulsatile blood pressure and heart rate of each of 32 rats was monitored every minute by means of two in-laboratory microcomputers communicating directly with a data concentrator computer. […]

SMILES | MAP (mean arterial pressure) decrease (30 mg/kg, ↓ = decrease) [%] | HR (heart rate) increase (10 mg/kg, ↑ = increase) [%]
OC[C@H]1O[C@@H](n2cnc3c(NC4Cc5cccc6cccc4c56)ncnc32)[C@H](O)[C@@H]1O (some centres unmarked) [Example 1, N^6 -Acenaphthyladenosine] | 30 | –
OC[C@H]1O[C@@H](n2cnc3c(NCC4=Cc5cccc6cccc4c56)ncnc32)[C@H](O)[C@@H]1O [Example 2, N^6-(1-acenaphthylenylmethyl)adenosine] | – | 0
